Measurements from patent US10941157B2, “Pesticidal compositions and uses thereof” (Gilead Apollo, LLC, priority 2015, dated 2021).
Values after ≈ are worked out from the molar mass of the structure shown. Where two headings read alike, the source gives them in different places.

Tests used:
[1] = system: Fusarium moniliforme (Fm); assay: In vitro pathogen growth inhibition assay, Fm; assay type: cell-based; conditions: Fusarium verticillioides
Procedure, shortened: (§1)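 Value reported is the compound concentration reaching ≥90% growth inhibition, from OD readings at 24 and 48 h after blank subtraction, confirmed visually. Inoculum was spores diluted in 17% V8 medium, except Rs, using 1.5 mm mycelial plugs in ¼ PDB; actual compound concentration corrected via OD600.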

[2] = system: Blumeria graminis f. sp. hordei; assay: Foliar protection test for barley powdery mildew control; assay type: in vivo; conditions: foliar spray on Hordeum vulgare cv. Perry, inoculated 24 hours after treatment, evaluated 7 days later
Procedure, shortened: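 Protective foliar test: compound atomized onto both leaf surfaces of 6-day-old Hordeum vulgare cv. Perry, followed after 24 h by spore-cloud inoculation from colonized untreated plants. Disease rated on leaves 7 days on, plants held at 20 to 22° C and 70% RH.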

Botrtyis cinerea (Bc) = assay: In vitro pathogen growth inhibition assay, Bc; assay type: cell-based; conditions: 48 h
Procedure, shortened: as §1

Rhizoctonia solani = assay: Seed protectant for soybean seedling disease, R. solani; assay type: in vivo; conditions: soybean from treated seeds, 0.025 mg/seed, R. solani inoculated; for Plant Weight: fresh weight at 14 days; for Improvement in plant weight: percentage of non-inoculated non-treated controls
Description: (§2) The pathogen of Rhizoctonia solani inoculum was grown on sterile sorghum; and the pathogen of Pythium ultimum inoculum was grown on white millet.
(§3) Soybean seeds (Glycine max cv. AG4832) were planted in 2.5-inch square pots containing Berger BM2 germination mix amended with fertilizer (e.g., 14-14-14). Pots with soil were inoculated with the pathogen of R. solani or P. ultimum at time of planting. A hole was pressed into the soil to a depth of about 2 to 3 cm; the inoculum was added to the hole, followed by the seed which was then covered with soil. Two seeds per pot were planted. Plants were grown in a growth chamber at conditions of 20 to 24° C., 14 hour light cycle, 500 uM of light, and 65% humidity. The pots inoculated with P. ultimum were sub-irrigated every day; and the pots inoculated with R. solani were sub-irrigated every other day.
(§4) Seedling emergence was captured at 7 and 14 days after seeding. At 14 days, the top of the plant was removed and fresh weight was recorded. The plant weights from the seeds treated with test compounds (e.g., in formulations) were compared to the ones either from the inoculated non-treated seeds or non-inoculated non-treated seeds. Table 10 lists the results of the R. solani control in soybean upon seed treatment with test compounds, and Table 11 lists the results of the P. ultimum control in soybean upon seed treatment with test compounds, respectively.

[3] = system: Phytophthora capsici (Pc); assay: In vitro pathogen growth inhibition assay, Pc; assay type: cell-based; conditions: 48 h
Procedure, shortened: (§5)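 Spores in 17% V8 liquid medium, or 1.5 mm Rs mycelial plugs in ¼ PDB, incubated with compound; final concentration checked by OD600 for precipitation. OD readings at 24 and 48 h, blank-subtracted, plus visual ratings; value is concentration giving ≥90% growth inhibition.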

Puccinia triticina = assay: Foliar protection test for wheat leaf rust control; assay type: in vivo; conditions: foliar application to wheat (Triticum aestivum cv. Winterhawk), evaluated 10 days later
Pythium ultimum = assay: Seed protectant for soybean seedling disease, P. ultimum; assay type: in vivo; conditions: soybean from treated seeds, 0.025 mg/seed, P. ultimum inoculated; for Plant Weight: fresh weight at 14 days; for Improvement in plant weight: percentage of non-inoculated non-treated controls
Description: as §2, §3, §4

Rhizoctonia solani (Rs) = assay: In vitro pathogen growth inhibition assay, Rs (mycelial plugs); assay type: cell-based; conditions: Rhizoctonia solani, 48 h, mycelial plugs
Procedure, shortened: as §5

[4] = system: Collectotrichum graminicola (Cg); assay: In vitro pathogen growth inhibition assay, Cg; assay type: cell-based; conditions: 48 h
Procedure, shortened: as §1

Sphaerotheca fuliginea = assay: Foliar protection for cucumber powdery mildew control; assay type: in vivo; conditions: foliar spray on Cucumis sativus cv. Straight Eight, inoculated 24 hours after treatment, evaluated 7 days later
Procedure, shortened: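 Protective foliar spray on 10-day-old Straight Eight cucumbers, with S. fuliginea spores dusted from infected stock plants 24 h after treatment. Disease developed at 23–27 °C, 60% RH and a 16 h photoperiod. Leaves were rated for mildew growth after 7 days; test rates 10 ppm or below.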

[5] = system: Mycosphaerella graminicola (synthetic Septoria tritici); assay: Foliar protection test for wheat septoria leaf blotch control; assay type: in vivo; conditions: foliar spray on Triticum aestivum cv. WinterHawk, inoculated 1 hour after treatment, evaluated 16 days later
Septoria tritici (St) = assay: In vitro pathogen growth inhibition assay, St; assay type: cell-based; conditions: Zymoseptoria tritici, 48 h
Procedure, shortened: as §1

Diplodia maydis (Dm) = assay: In vitro pathogen growth inhibition assay, Dm; assay type: cell-based; conditions: Stenocarpella maydis, 48 h
Procedure, shortened: as §5

[6] = system: Fusarium virguliforme (Fv); assay: In vitro pathogen growth inhibition assay, Fv; assay type: cell-based
Procedure, shortened: as §5

Phakopsora pachyrhizi = assay: Foliar protection test for Asian soybean rust control; assay type: in vivo; conditions: foliar application to soybean (Glycine max AG4832), percent disease area evaluated 14 days later
Fusarium graminearum [7] = assay type: in vivo; conditions: spray on flowering Triticum aestivum cv. Samson, inoculated 24 hours after treatment, evaluated 14 days later
Fusarium graminearum [8] = assay type: in vivo; conditions: corn from treated seeds, 0.025 mg/seed, F. graminearum inoculated, Table 12
[9] = ≥90% inhibition, 48 hours vs 2% DMSO control, read-out: Compound Concentration (ppm) sufficient for ≥90% inhibition of growth, Fm
[10] = ≥90% inhibition, 48 hours vs 2% DMSO control, read-out: Compound Concentration (ppm) sufficient for ≥90% inhibition of growth, Bc
[11] = ≥90% inhibition, 48 hours vs 2% DMSO control, read-out: Compound Concentration (ppm) sufficient for ≥90% inhibition of growth, Pc
[12] = ≥90% inhibition, 48 hours vs 2% DMSO control, read-out: Compound Concentration (ppm) sufficient for ≥90% inhibition of growth, Rs
[13] = ≥90% inhibition, 48 hours vs 2% DMSO control, read-out: Compound Concentration (ppm) sufficient for ≥90% inhibition of growth, Cg
[14] = ≥90% inhibition, 48 hours vs 2% DMSO control, read-out: Compound Concentration (ppm) sufficient for ≥90% inhibition of growth, St
[15] = ≥90% inhibition, 48 hours vs 2% DMSO control, read-out: Compound Concentration (ppm) sufficient for ≥90% inhibition of growth, Dm
[16] = ≥90% inhibition, 48 hours vs 2% DMSO control, read-out: Compound Concentration (ppm) sufficient for ≥90% inhibition of growth, Fv

Compound	IC90 [1, 9] [mg/L]	Barley Powdery Mildew Control at a compound concentration of 10 ppm or lower [2]	IC90 (Botrtyis cinerea (Bc); [10]) [mg/L]	Plant Weight (Rhizoctonia solani) [g]	Improvement in plant weight (Rhizoctonia solani) [%]	IC90 [3, 11] [mg/L]	Wheat Leaf Rust Control at a compound concentration of 10 ppm or lower (Puccinia triticina)	Plant Weight (Pythium ultimum) [g]	Improvement in plant weight (Pythium ultimum) [%]	IC90 (Rhizoctonia solani (Rs); [12]) [mg/L]	IC90 [4, 13] [mg/L]	Cucumber Powdery Mildew Control at a compound concentration of 10 ppm or lower (Sphaerotheca fuliginea)	Septoria Leaf Blotch Control at a compound concentration of 25 ppm or lower [5]	IC90 (Septoria tritici (St); [14]) [mg/L]	IC90 (Diplodia maydis (Dm); [15]) [mg/L]	IC90 [6, 16] [mg/L]	Asian Soybean Rust Control at a compound concentration of 25 ppm or lower (Phakopsora pachyrhizi)	Wheat Fusarium Head Blight Control at a compound concentration of 25 ppm or lower (Fusarium graminearum [7])	other results
COc1ccc(F)cc1[C@H](Cn1c(=O)n(C(C)(C)C(=O)NC(C)C)c(=O)c2c(C)c(-n3nccn3)sc21)OCCO [Compound I-064, (R)-2-(1-(2-(5-fluoro-2-methoxyphenyl)-2-(2-hydroxyethoxy)ethyl)-5-methyl-2,4-dioxo-6-(2H-1,2,3-triazol-2-yl)-1,4-dihydrothieno[2,3-d]pyrimidin-3 (2H)-yl)-N-isopropyl-2-methylpropanamide]	0.08 (≈ 0.136 µM)	A (from 70% to 84% control of barley powdery mildew)	2 (≈ 3.4 µM)	6.41	79.9	≥ 2	AA (≥85% control of wheat leaf rust)	5.49	88	≥ 0.08	0.4 (≈ 0.68 µM)	AA (≥85% control of cucumber powdery mildew)	A (from 70% to 84% control of wheat septoria leaf blotch)	≥ 2	0.4 (≈ 0.68 µM)	0.4 (≈ 0.68 µM)	A (from 70% to 84% control of Asian soybean rust)	C (from 25 to 49% control of wheat fusarium head blight)	–
COCCO[C@@H](Cn1c(=O)n(C(C)(C)C(=O)NC(C)C)c(=O)c2c(C)c(-n3nccn3)sc21)c1cc(F)ccc1OC [Compound I-074, (R)-2-(1-(2-(5-fluoro-2-methoxyphenyl)-2-(2-methoxyethoxy)ethyl)-5-methyl-2,4-dioxo-6-(2H-1,2,3-triazol-2-yl)-1,4-dihydrothieno[2,3-d]pyrimidin-3 (2H)-yl)-N-isopropyl-2-methylpropanamide]	0.08 (≈ 0.133 µM)	AA (≥85% control of barley powdery mildew)	2 (≈ 3.32 µM)	2.06	25.7	≥ 50	A (from 70% to 84% control of wheat leaf rust)	4.33	69	0.4 (≈ 0.664 µM)	2 (≈ 3.32 µM)	AA (≥85% control of cucumber powdery mildew)	AA (≥85% control of wheat septoria leaf blotch)	> 50	2 (≈ 3.32 µM)	0.4 (≈ 0.664 µM)	C (from 25 to 49% control of Asian soybean rust)	C (from 25 to 49% control of wheat fusarium head blight)	–
COc1ccc(F)cc1[C@@H](O)Cn1c(=O)n(C(C)(C)C(=O)NC(C)C)c(=O)c2c(C)c(-n3nccn3)sc21 [Compound I-185, (R)-2-(1-(2-(5-fluoro-2-methoxyphenyl)-2-hydroxyethyl)-5-methyl-2,4-dioxo-6-(2H-1,2,3-triazol-2-yl)-1,4-dihydrothieno[2,3-d]pyrimidin-3 (2H)-yl)-N-isopropyl-2-methylpropanamide]	–	AA (≥85% control of barley powdery mildew)	–	–	–	–	AA (≥85% control of wheat leaf rust)	–	–	–	–	AA (≥85% control of cucumber powdery mildew)	AA (≥85% control of wheat septoria leaf blotch)	–	–	–	AA (≥85% control of Asian soybean rust)	A (from 70% to 84% control of wheat fusarium head blight)	IC90 ([1]; ≥90% growth inhibition, 48 hours, vs 2% DMSO control, read-out: Compound Concentration (ppm) sufficient for ≥90% inhibition of Fm): 0.08 mg/L (≈ 0.147 µM); IC90 (Botrtyis cinerea (Bc); ≥90% growth inhibition, 48 hours, vs 2% DMSO control, read-out: Compound Concentration (ppm) sufficient for ≥90% inhibition of Bc): 0.4 mg/L (≈ 0.734 µM); IC90 ([3]; ≥90% growth inhibition, 48 hours, vs 2% DMSO control, read-out: Compound Concentration (ppm) sufficient for ≥90% inhibition of Pc): ≥ 10 mg/L; IC90 (Rhizoctonia solani (Rs); ≥90% growth inhibition, 48 hours, vs 2% DMSO control, read-out: Compound Concentration (ppm) sufficient for ≥90% inhibition of Rs): 0.08 mg/L (≈ 0.147 µM); IC90 ([4]; ≥90% growth inhibition, 48 hours, vs 2% DMSO control, read-out: Compound Concentration (ppm) sufficient for ≥90% inhibition of Cg): 0.4 mg/L (≈ 0.734 µM); Plant Height (Fusarium graminearum [8]): 45.66 cm; IC90 (Septoria tritici (St); ≥90% growth inhibition, 48 hours, vs 2% DMSO control, read-out: Compound Concentration (ppm) sufficient for ≥90% inhibition of St): ≥ 50 mg/L; IC90 (Diplodia maydis (Dm); ≥90% growth inhibition, 48 hours, vs 2% DMSO control, read-out: Compound Concentration (ppm) sufficient for ≥90% inhibition of Dm): 0.4 mg/L (≈ 0.734 µM); IC90 ([6]; ≥90% growth inhibition, 48 hours, vs 2% DMSO control, read-out: Compound Concentration (ppm) sufficient for ≥90% inhibition of Fv): 0.08 mg/L (≈ 0.147 µM)
